IC50 data for 27 molecules are collected here from US12234245B2, “Sulfonimidamide compounds as inhibitors of interleukin-1 activity” (Genentech, Inc., priority 2018, dated 2025).

Like-named read-outs stand apart in the source and are kept apart here.

Holding throughout (format): cell-based
Assay [1] has as its system PBMCs. The assay is described as follows: CTG (CellTiter-Glo) viability assay in PBMCs. The following applies: LPS and nigericin stimulated. On the procedure: (§1) Human peripheral blood mononuclear cells (PBMCs), consisting of lymphocytes (T, B and NK cells), monocytes and dendritic cells, were freshly isolated from human peripheral blood from healthy donors. Cells were obtained through an IRB approved donor program by iXCells Biotechnologies where all the donors were tested for bacterial and viral infections. Cells were purified from peripheral blood using ficoll gradient centrifugation.
(§2) Fresh or cryopreserved PMBCs were seeded in V-bottom 96-well plate at 0.5-1×10^5 cells per well and incubated overnight at 37° C. with 5% CO2 in RPMI 1640 medium with GlutaMAX supplement, 4.5 g/L D-glucose, 10% Fetal Bovine Serum (FBS), […] Sodium Pyruvate, 1% Penicillin/Streptomycin, 10 mM HEPES and 0.05 mM of β-mercaptoethanol. Freshly isolated or cryopreserved KCs cells were seeded in flat-bottom 96-well plates at 0.6-1.5×10^5 cells/well and incubated overnight at 37° C. 5% CO2 in RPMI 1640 Medium with GlutaMAX supplement, FBS, 1% Penicillin/Streptomycin and 10 mM HEPES. The following day, the cells were primed with 100 ng/mL of lipopolysaccharides (LPS; Sigma Aldrich) in FBS-free RPMI 1640 for 3 h. After the priming step, the media was removed and PBMCs were pre-incubated with serial concentrations of test compounds (0.00017-10 uM) or vehicle (DMSO) for 30 min in FBS-free media prior to addition of the NLRP3 activator. Cells were then stimulated with 10 uM Nigericin (Sigma Aldrich; InvivoGen) for 1.5 h. Plates were centrifuged at 1,500 rpm for 3 minutes to pellet cells and supernatant was transferred into new plates for subsequent experiments.
Viability of compound treated cells was measured using CellTiter-Glo® assay (Promega, Madison, Wis.) that measures the ATP content of cells which is proportional to the number of live cells within a well. This is a counter-screen to establish that the reduction of IL-1β levels in LPS and nigericin stimulated and compound treated cells is not due to cytotoxicity, but rather through the inhibition of the inflammasome pathway. Compounds inhibiting NRLP3 inflammasome activation ultimately increase the viability of LPS and nigericin stimulated cells by blocking NLRP3 mediated pyroptosis that would otherwise lead to cell lysis.
For orientation: ATP-based viability assays read luminescence as a measure of living cells.

Assay [2] concerns the target T1, NLRP3 inflammasome (Homo sapiens, UniProt Q96P20). The assay is described as follows: NLRP3 inflammasome activation assay in PBMCs, IL-1β release (ELISA / HTRF). Set-up: were freshly isolated from human peripheral blood from healthy donors; StemCells Technologies; host or cells: primary human PBMCs, LPS-primed, nigericin-stimulated. The following applies: LPS primed. How it is done:
Some of the following assays were used to determine the inhibitory activity of the compounds on the NLRP3 inflammasome using a common inflammasome activation stimuli—nigericin.
as §1, §2
For ELISA assays cells were seeded into 96-well plates. Post study, supernatants were removed and the levels of mature IL-1β, IL18 and TNFα (Quantikine ELISA, R&D systems) were measured in cell conditioned media by ELISA according to manufacturer's instructions.
Human frozen PBMCs were purchased from StemCells Technologies. Cells were rapidly thawed in 37° C. water bath and resuspended in fresh assay media consisting of RPMI 1640 Medium containing 1% sodium pyruvate, 10 mM HEPES, 2.5 g/L glucose and 55 μM 2-Mercaptoethanol. Cell density was adjusted to 8.1×10^5 cells/mL. Cells were primed by adding lipopolysaccharide (Invivogen Ultrapure lipopolysaccharide from E. coli, tlrl-3pelps) at a final concentration of 100 ng/mL in cell suspension. 37 μL of cell suspension with LPS was seeded per well of a 384 well plate and incubated for 3 hours at 37° C. and 5% CO2. After priming, PBMCs were preincubated with serially diluted test compounds with starting concentration of 40 μM followed by 2-fold dilution for a 20-point curve or vehicle (DMSO) for 30 min in assay media at 37° C. and 5% CO2. Cells were then stimulated with 10 μM nigericin (Invivogen, tlrl-nig-5) for 90 min at 37° C. and 5% CO2 to activate NLRP3 dependent inflammasome pathway and IL-1β release in cell culture supernatant. Cells were centrifuged at 1200 RPM for 1 min and 40 μL of supernatant was transferred into fresh plates and stored at −80° C. until IL-1β analysis.
16 μL of supernatant was added to white 384 well HTRF plates, followed by addition of 4 μL of HTRF cocktail in each well. Plates were quickly centrifuged, sealed and incubated overnight at room temperature. Next day, HTRF signal was read on a Pherastar and ratio of 665/620 was calculated based on manufacturer's protocol to obtain concentration of IL-1β in cell culture supernatant.
Background: In an ELISA, binding on a coated surface is turned into a signal by an enzyme label.

Assay [3] addresses T1, NLRP3 inflammasome. The assay is described as follows: THP-1 ASC-GFP speck assay. Set-up: host or cells: THP-1 ASC-GFP cells, PMA-differentiated, LPS-primed, nigericin-stimulated. The following applies: THP-1 ASC-GFP cells, PMA differentiated, LPS primed, 10 μM nigericin; read-out: THP1 ASC Speck IC50. The method, boiled down:
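PMA-differentiated (500 ng/ml, overnight) THP-1 ASC-GFP cells primed with 1 μg/mL LPS for 3 h, preincubated 30 min with compound (top 40 μM, 2-fold, 20 points), then stimulated with 10 μM nigericin for 90 min at 37 °C. After fixation and Hoechst staining, imaging gave the percentage of cells bearing a GFP ASC speck.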

Where [4] appears, read: 10 μM nigericin, read-out: PBMC IL-1β IC50.
Where [5] appears, read: 10 uM nigericin, read-out: PBMC IL-1 β IC50.
Setting [6] is: human PBMCs, read-out: PBMC CTG IC50.

T1 sequence (Q96P20 whole entry): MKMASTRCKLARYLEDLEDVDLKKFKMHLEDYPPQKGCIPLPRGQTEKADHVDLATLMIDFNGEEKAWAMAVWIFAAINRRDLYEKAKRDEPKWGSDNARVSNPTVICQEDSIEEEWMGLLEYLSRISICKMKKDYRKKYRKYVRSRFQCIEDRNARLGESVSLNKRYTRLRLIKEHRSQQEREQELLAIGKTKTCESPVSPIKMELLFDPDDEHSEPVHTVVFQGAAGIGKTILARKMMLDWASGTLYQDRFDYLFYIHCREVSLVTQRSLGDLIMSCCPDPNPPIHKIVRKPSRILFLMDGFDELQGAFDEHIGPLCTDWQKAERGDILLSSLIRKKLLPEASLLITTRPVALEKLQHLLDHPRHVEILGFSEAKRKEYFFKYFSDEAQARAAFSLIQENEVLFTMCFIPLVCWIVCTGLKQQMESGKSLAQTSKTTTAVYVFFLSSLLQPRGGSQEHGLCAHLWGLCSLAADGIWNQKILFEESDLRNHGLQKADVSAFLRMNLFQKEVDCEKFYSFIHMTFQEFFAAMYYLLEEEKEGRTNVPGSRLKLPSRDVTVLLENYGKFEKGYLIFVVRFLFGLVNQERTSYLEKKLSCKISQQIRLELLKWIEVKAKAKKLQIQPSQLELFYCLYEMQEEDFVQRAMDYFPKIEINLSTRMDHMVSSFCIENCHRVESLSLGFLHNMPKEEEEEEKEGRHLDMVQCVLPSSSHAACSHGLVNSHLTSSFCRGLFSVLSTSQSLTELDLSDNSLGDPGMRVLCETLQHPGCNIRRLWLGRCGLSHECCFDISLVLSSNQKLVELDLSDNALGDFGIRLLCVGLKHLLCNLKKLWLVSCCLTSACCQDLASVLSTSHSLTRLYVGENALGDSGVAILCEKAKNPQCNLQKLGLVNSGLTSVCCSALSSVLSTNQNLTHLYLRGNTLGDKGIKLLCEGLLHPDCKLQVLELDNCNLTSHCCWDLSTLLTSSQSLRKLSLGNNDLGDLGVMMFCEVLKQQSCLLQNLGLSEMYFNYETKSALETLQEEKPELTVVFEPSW

For `Cn1cc(S(N)(=O)=NC(=O)Nc2c3c(cc4c2CCC4)CCC3)cn1` (racemic) [Example 5, N′-((1,2,3,5,6,7-hexahydro-s-indacen-4-yl)carbamoyl)-1-methyl-1H-pyrazole-4-sulfonimidamide], the IC50 (as a rule, the midpoint of a concentration-inhibition curve) stood at 648 nM in assay [1] (Homo sapiens, PBMC) and 1020 nM in assay [2] (setting [4]).

`CN=S(=O)(NC(=O)Nc1c2c(cc3c1CCC3)CCC2)c1cnn2c1OCCC2` (stereo not drawn): the IC50 in assay [1] (Homo sapiens, PBMC) was > 10000 nM; in assay [2] (setting [5]) it was > 10000 nM.

For `CC(C)c1cc(F)cc(C(C)C)c1NC(=O)NS(=N)(=O)c1cnn2c1OCCC2` (stereo not drawn) [drawing 655], the IC50 in assay [1] (Homo sapiens, PBMC) is < 100 nM; in assay [2] (setting [5]), 100 to 1000 nM.

In the case of `CNC1COc2c(S(N)(=O)=NC(=O)Nc3c4c(cc5c3CCC5)CCC4)cnn2C1` (single isomer, unassigned) [Example 25], the 50% inhibitory concentration (IC50) in assay [1] (setting [6]) is 8 nM; in assay [2] (setting [4]) it was 300 nM.

Turning to `NS(=O)(=NC(=O)Nc1c2c(c(F)c3c1CCC3)CCC2)c1cnn2c1OCCC2` (stereo not drawn), the half-inhibitory concentration (IC50) in assay [1] (Homo sapiens, PBMC) is < 100 nM; in assay [2] (setting [5]), < 100 nM.

As to `NS(=O)(=NC(=O)Nc1c2c(cc3c1CCC3)CCC2)c1cnn2c1OCC(NCCF)C2` (single isomer, unassigned) [Example 35], the 50% inhibitory concentration (IC50) was 250 nM in assay [1] (Homo sapiens, PBMC) and 180 nM in assay [2] (setting [4]).

As to `CC(C)c1cc(F)cc(C(C)C)c1NC(=O)NS(=N)(=O)c1cnn2c1OCCC2` (stereo not drawn) [drawing 651], the 50% inhibitory concentration (IC50) in assay [1] (setting [6]) and in assay [2] (setting [5]) was 100 to 1000 nM in each case.

Take `CC(C)c1cc(F)cc(C(C)C)c1NC(=O)NS(=N)(=O)c1cnn2c1OCCC2` (stereo not drawn) [drawing 656]: the values for the IC50 in assay [1] (setting [6]) and in assay [2] (setting [5]) were < 100 nM and 100 to 1000 nM, respectively.

As for `NS(=O)(=NC(=O)Nc1c2c(c(F)c3c1CCC3)CCC2)c1cnn2c1OC[C@@H](NCCF)C2` (single isomer, unassigned) [Example 47], the IC50 in assay [3] was 1700 nM; in assay [2] (setting [4]), 330 nM.

`CNCCOC1COc2c(S(N)(=O)=NC(=O)Nc3c4c(cc5c3CCC5)CCC4)cnn2C1` (single isomer, unassigned) [Example 56]: the results for the concentration for half-maximal inhibition (IC50) in assay [3] and in assay [2] (setting [4]) were > 20000 nM and > 10000 nM, respectively.

As to `Cn1cc(S(N)(=O)=NC(=O)Nc2c3c(cc4c2CCC4)CCC3)cn1` (stereo not drawn), the half-inhibitory concentration (IC50) in assay [1] (Homo sapiens, PBMC) fell in the range of 100 to 1000 nM; in assay [2] (setting [5]), 100 to 1000 nM.

For `CC1(C)COc2c(S(N)(=O)=NC(=O)Nc3c4c(cc5c3CCC5)CCC4)cnn2C1` (stereo not drawn), the 50% inhibitory concentration (IC50) was < 100 nM in assay [1] (Homo sapiens, PBMC) and < 100 nM in assay [2] (setting [5]).

For the molecule `NS(=O)(=NC(=O)Nc1c2c(c(F)c3c1CCC3)CCC2)c1cnn2c1OCCC2` (racemic) [Example 4, N′-((8-fluoro-1,2,3,5,6,7-hexahydro-s-indacen-4-yl)carbamoyl)-6,7-dihydro-5H-pyrazolo[5,1-b][1,3]oxazine-3-sulfonimidamide], the IC50 in assay [1] (Homo sapiens, PBMC) stood at 35 nM; in assay [2] (setting [4]) it was 50 nM.

Consider `CC(C)c1cc(F)cc(C(C)C)c1NC(=O)N=S(N)(=O)c1cnn2c1OCCC2` (racemic) [Example 3, N′-((4-fluoro-2,6-diisopropylphenyl)carbamoyl)-6,7-dihydro-5H-pyrazolo[5,1-b][1,3]oxazine-3-sulfonimidamide], for which the IC50 in assay [1] (Homo sapiens, PBMC) was 176 nM; in assay [2] (setting [4]), 410 nM.

On to `N=S(=O)(NC(=O)Nc1c2c(cc3c1CCC3)CCC2)c1cnn(CC2CC2)c1` (stereo not drawn), for which the half-maximal inhibitory concentration (IC50) in assay [1] (Homo sapiens, PBMC) was 100 to 1000 nM; in assay [2] (setting [5]), 100 to 1000 nM.

With `CO[C@@H]1COc2c(S(=N)(=O)NC(=O)Nc3c4c(cc5c3CCC5)CCC4)cnn2C1` (stereo partly drawn) [drawing 650], the IC50 in assay [1] (setting [6]) and in assay [2] (setting [5]) was < 100 nM each time.

`COCCNC1COc2c(S(N)(=O)=NC(=O)Nc3c4c(cc5c3CCC5)CCC4)cnn2C1` (single isomer, unassigned) [Example 55]: the 50% inhibitory concentration (IC50) in assay [3] was 7200 nM; in assay [2] (setting [4]), > 10000 nM.

On to `COC1CN(C2COc3c(S(N)(=O)=NC(=O)Nc4c5c(cc6c4CCC6)CCC5)cnn3C2)C1` (single isomer, unassigned) [Example 39], for which the IC50 in assay [1] (setting [6]) amounted to 150 nM; in assay [2] (setting [4]), 19 nM.

As to `NS(=O)(=NC(=O)Nc1c2c(cc3c1CCC3)CCC2)c1cnn(CC2CC2)c1` (racemic) [Example 10, 1-(cyclopropylmethyl)-N′-((1,2,3,5,6,7-hexahydro-s-indacen-4-yl)carbamoyl)-1H-pyrazole-4-sulfonimidamide], the IC50 in assay [1] (Homo sapiens, PBMC) is 360 nM; in assay [2] (setting [4]) it was 350 nM.

In the case of `N[C@@H]1COc2c([S@@](N)(=O)=NC(=O)Nc3c4c(cc5c3CCC5)CCC4)cnn2C1` [Example 59, (S,6S)-6-amino-N′-((1,2,3,5,6,7-hexahydro-s-indacen-4-yl)carbamoyl)-6,7-dihydro-5H-pyrazolo[5,1-b][1,3]oxazine-3-sulfonimidamide], the IC50 worked out at 260 nM in assay [3] and 95 nM in assay [2] (setting [4]).

On to `CNC1COc2c(S(N)(=O)=NC(=O)Nc3c(C(C)C)cc(OC)nc3C(C)C)cnn2C1` (single isomer, unassigned) [Example 50], for which the results for the half-inhibitory concentration (IC50) in assay [3] and in assay [2] (setting [4]) were 430 nM and 200 nM, respectively.

As to `CC(C)c1cc(F)cc(C(C)C)c1NC(=O)N=S(N)(=O)c1cnn2c1OCCC2` (single isomer, unassigned) [Example 7], the concentration for half-maximal inhibition (IC50) in assay [1] (Homo sapiens, PBMC) worked out at 3 nM; in assay [2] (setting [4]), 290 nM.

With `CN(C)[C@@H]1COc2c([S@](N)(=O)=NC(=O)Nc3c4c(c(F)c5c3CCC5)CCC4)cnn2C1` (single isomer, unassigned) [Example 44], the IC50 was 450 nM in assay [3] and 86 nM in assay [2] (setting [4]).

`NS(=O)(=NC(=O)Nc1c2c(c(F)c3c1CCC3)CCC2)c1cnn2c1OCC(NCCF)C2` (single isomer, unassigned) [Example 46]: the IC50 came to 81 nM in assay [3] and 7 nM in assay [2] (setting [4]).

With `CO[C@@H]1COc2c(S(N)(=O)=NC(=O)Nc3c4c(cc5c3CCC5)CCC4)cnn2C1` (mixture of isomers) [Example 2, (6S)—N′-((1,2,3,5,6,7-hexahydro-s-indacen-4-yl)carbamoyl)-6-methoxy-6,7-dihydro-5H-pyrazolo[5,1-b][1,3]oxazine-3-sulfonimidamide], the IC50 was 100 nM in assay [1] (Homo sapiens, PBMC) and 24 nM in assay [2] (setting [4]).

For `CNS(=O)(=NC(=O)Nc1c2c(cc3c1CCC3)CCC2)c1cnn2c1OCCC2` (racemic) [Example 9, N′-((1,2,3,5,6,7-hexahydro-s-indacen-4-yl)carbamoyl)-N-methyl-6,7-dihydro-5H-pyrazolo[5,1-b][1,3]oxazine-3-sulfonimidamide], the IC50 in assay [1] (Homo sapiens, PBMC) is > 10000 nM; in assay [2] (setting [4]), > 10000 nM.

For `COC1CN(C2COc3c(S(N)(=O)=NC(=O)Nc4c5c(c(F)c6c4CCC6)CCC5)cnn3C2)C1` (single isomer, unassigned) [Example 43], the half-inhibitory concentration (IC50) in assay [3] was found to be 1900 nM; in assay [2] (setting [4]), 430 nM.
